Our source for the Ki values is patent US11612606B2, “8-aminoisoquinoline compounds and uses thereof” (priority 2018, dated 2023).

Where a name gives a salt, the structure may show the parent alone. Read-outs that look alike come from different tables or passages of the source.

For the assay, the target named is HPK full length, T165E S171E (Homo sapiens (Human), UniProt Q92918, S171E/T165E). In words: HPK1-FL HTRF enzymatic assay ("HTRF"). In kind it is biochemical. The following applies: ATP 1 mM. In short, it runs like this:
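Full-length HPK1 (T165E/S171E) was preincubated 30 min with compound, then reacted 60 min with biotin-SLP-76 and 1 mM ATP. Phospho-SLP-76 was detected by HTRF (Eu-anti-pSLP76 antibody, SA-XL665) after a further 60 min.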
(TR-FRET usually uses a lanthanide donor and a delayed reading to cut background.)

Sequence of HPK full length, T165E S171E (Q92918 whole entry T165E/S171E, looked up): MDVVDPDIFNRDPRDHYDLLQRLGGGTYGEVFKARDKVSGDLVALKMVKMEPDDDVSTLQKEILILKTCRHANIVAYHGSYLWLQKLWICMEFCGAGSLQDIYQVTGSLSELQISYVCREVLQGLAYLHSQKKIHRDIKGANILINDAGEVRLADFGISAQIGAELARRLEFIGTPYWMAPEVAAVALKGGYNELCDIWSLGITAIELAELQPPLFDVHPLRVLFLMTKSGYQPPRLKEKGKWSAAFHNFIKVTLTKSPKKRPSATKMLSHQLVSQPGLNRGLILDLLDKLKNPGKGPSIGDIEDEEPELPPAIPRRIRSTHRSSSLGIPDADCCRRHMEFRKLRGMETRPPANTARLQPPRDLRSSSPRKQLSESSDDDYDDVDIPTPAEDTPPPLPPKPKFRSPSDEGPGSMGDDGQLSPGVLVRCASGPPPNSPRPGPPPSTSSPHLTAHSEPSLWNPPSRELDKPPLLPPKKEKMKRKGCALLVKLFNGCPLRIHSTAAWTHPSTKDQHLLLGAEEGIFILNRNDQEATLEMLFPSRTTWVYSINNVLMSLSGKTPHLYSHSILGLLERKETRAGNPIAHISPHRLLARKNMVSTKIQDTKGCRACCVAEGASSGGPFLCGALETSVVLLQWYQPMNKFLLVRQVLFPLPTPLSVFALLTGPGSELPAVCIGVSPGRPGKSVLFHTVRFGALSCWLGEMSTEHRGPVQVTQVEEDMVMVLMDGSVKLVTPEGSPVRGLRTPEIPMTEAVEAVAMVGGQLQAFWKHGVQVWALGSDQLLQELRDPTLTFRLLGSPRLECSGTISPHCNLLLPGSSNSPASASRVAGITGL

Broadly, the Ki is the equilibrium dissociation constant of an inhibitor or competing ligand from its target. Take `CN[C@H]1C[C@H](OC(=O)Nc2cc3cc(-c4cnc5c(c4C)NCCO5)c(F)c(N)c3cn2)C1` [Compound 539a, (1r,3r)-3-(Methylamino)cyclobutyl (8-amino-7-fluoro-6-(8-methyl-2,3-dihydro-1H-pyrido[2,3-b][1,4]oxazin-7-yl)isoquinolin-3-yl)carbamate]: under “read-out: HPK1 Ki”, the Ki is below 0.013 nM.

In the case of `Cc1c(-c2cc3cc(NC(=O)OC4CN(C5CC5)C4)ncc3c(N)c2F)cnc2c1NCCO2` [Compound 540, 1-Cyclopropylazetidin-3-yl (8-amino-7-fluoro-6-(8-methyl-2,3-dihydro-1H-pyrido[2,3-b][1,4]oxazin-7-yl)isoquinolin-3-yl)carbamate], the Ki (read-out: HPK1 Ki) worked out at 0.021 nM.

`Cc1c(-c2cc3cc(NC(=O)O[C@H]4C[C@@H](F)C4)ncc3c(N)c2F)cnc2c1NCCO2` [Compound 541a, (1s,3s)-3-Fluorocyclobutyl (8-amino-7-fluoro-6-(8-methyl-2,3-dihydro-1H-pyrido[2,3-b][1,4]oxazin-7-yl)isoquinolin-3-yl)carbamate hydrochloride]: the Ki (read-out: HPK1 Ki) came to 0.014 nM.

For the compound `Cc1c(-c2cc3cc(NC(=O)O[C@H]4CC[C@H]4O)ncc3c(N)c2F)cnc2c1NCCO2` [Compound 542a, (1S,2R)-2-Hydroxycyclobutyl (8-amino-7-fluoro-6-(8-methyl-2,3-dihydro-1H-pyrido[2,3-b][1,4]oxazin-7-yl)isoquinolin-3-yl)carbamate], the affinity (HPK1 Ki) corresponds to a Ki of 0.33 nM.

As for `Cc1c(-c2cc3cc(NC(=O)O[C@@H]4CC[C@@H]4O)ncc3c(N)c2F)cnc2c1NCCO2` [Compound 542b, (1R,2S)-2-Hydroxycyclobutyl (8-amino-7-fluoro-6-(8-methyl-2,3-dihydro-1H-pyrido[2,3-b][1,4]oxazin-7-yl)isoquinolin-3-yl)carbamate], for the setting “read-out: HPK1 Ki”, the Ki came out at 0.078 nM.

In turn, `Cc1c(-c2cc3cc(NC(=O)O[C@H]4CC[C@@H]4O)ncc3c(N)c2F)cnc2c1NCCO2` [Compound 542c, (1S,2S)-2-Hydroxycyclobutyl (8-amino-7-fluoro-6-(8-methyl-2,3-dihydro-1H-pyrido[2,3-b][1,4]oxazin-7-yl)isoquinolin-3-yl)carbamate hydrochloride] registered a Ki (HPK1 Ki) of 0.021 nM.

In turn, `Cc1c(-c2cc3cc(NC(=O)O[C@@H]4CC[C@H]4O)ncc3c(N)c2F)cnc2c1NCCO2` [Compound 542d, (1R,2R)-2-Hydroxycyclobutyl (8-amino-7-fluoro-6-(8-methyl-2,3-dihydro-1H-pyrido[2,3-b][1,4]oxazin-7-yl)isoquinolin-3-yl)carbamate hydrochloride] showed a Ki (HPK1 Ki) of 0.014 nM.

As for `Cc1c(-c2cc3cc(NC(=O)O[C@H]4[C@@H]5COC[C@@H]54)ncc3c(N)c2F)cnc2c1NCCO2` [Compound 543a, (1R,5S,6s)-3-oxabicyclo[3.1.0]hexan-6-yl (8-amino-7-fluoro-6-(8-methyl-2,3-dihydro-1H-pyrido[2,3-b][1,4]oxazin-7-yl)isoquinolin-3-yl)carbamate], the Ki (read-out: HPK1 Ki) is below 0.013 nM.

As to `Cc1c(-c2cc3cc(NC(=O)O[C@@H]4[C@@H]5COC[C@@H]54)ncc3c(N)c2F)cnc2c1NCCO2` [Compound 543b, (1R,5S,6r)-3-oxabicyclo[3.1.0]hexan-6-yl (8-amino-7-fluoro-6-(8-methyl-2,3-dihydro-1H-pyrido[2,3-b][1,4]oxazin-7-yl)isoquinolin-3-yl)carbamate], for the setting “read-out: HPK1 Ki”, the Ki was 0.083 nM.

`Cc1c(-c2cc3cc(NC(=O)O[C@@H]4CCOC4)ncc3c(N)c2F)cnc2c1[C@@H](O)CC2` [Compound 548a, (R)-tetrahydrofuran-3-yl (8-amino-7-fluoro-6-((S)-5-hydroxy-4-methyl-6,7-dihydro-5H-cyclopenta[b]pyridin-3-yl)isoquinolin-3-yl)carbamate] displayed a Ki (HPK1 Ki) of 1.7 nM.

In the case of `Cc1c(-c2cc3cc(NC(=O)O[C@@H]4CCOC4)ncc3c(N)c2F)cnc2c1[C@H](O)CC2` [Compound 548b, (R)-tetrahydrofuran-3-yl (8-amino-7-fluoro-6-((R)-5-hydroxy-4-methyl-6,7-dihydro-5H-cyclopenta[b]pyridin-3-yl)isoquinolin-3-yl)carbamate], the Ki (read-out: HPK1 Ki) was 93 nM.
